Counter-ions that a name gives are not always drawn.
Tests used:
[1] = system: UCI101 ovarian cancer cells; assay: Alamar Blue cell growth inhibition, UCI101; type: cell-based; conditions: for relative potency / activity: UCI101, 48 hours
Protocol: Cell growth was measured by AlamarBlue™ staining and the percentage of cell growth inhibition was calculated and compared with the control cells that were treated with 0.1% DMSO, the vehicles for the stilbene compounds.
Cells were treated with the tested drug for 2 days before analysis of cell growth by Alamar Blue™ staining. Cells treated with 0.1% DMSO were used as control and set as 100%.
(§1) (a) In vitro sensitivity of UCI101 cells toward three potential stilbene prodrugs, 5a-c, was tested in 96-well plates using Alamar Blue™ assays to determine cell growth inhibition. […] (b) 5b induces cell cycle change and apoptosis in UCI101 cells. Cells were incubated with 5b at 1, 3, 10 μM for 16 hours followed by PI staining and flow cytometry analysis. A subG0/1 population, representing apoptotic cells, appeared along with a decrease of the G1/G2 ratio after cells were treated with 3 μM 5b. Higher concentration (10 μM) of 5b completely killed cells, as was the case with stilbene 4a at […]. (c) Cells treated with stilbene 4a and 5b were stained with phospho-histone 3B, a mitotic marker. The positive signals of phospho-histone 3B were shown in green and nuclei were stained with DAPI in blue. […] (d) In vivo efficacy of 5b compared with stilbene 4a. Nude mice were injected with UCI101 ovarian cancer cells and treated with 7 doses of 5b,c or stilbene 4a every 2-3 days. Tumor volume was calculated and plotted against days.
(§2) Various cancer cell lines were grown in 96-well plates for drug sensitivity assays. Once cells achieved 50% confluence, the incubation media was changed to the same cell growth media with different concentrations of the tested compounds or vehicle alone. Cells were then incubated for 48 hours before the cell growth inhibition study. To determine the degree of cell growth inhibition, 1/10 volume of Alamar Blue™ solution was added to each well and optical density (OD) at 570 and 600 nm was determined. The percentage of growth inhibition was calculated according to the manufacturer's formula as follows: The percentage of growth is [(117216×A570)−(80586×A600)]/[(117216×A^o570)−(80586×A^o600)]×100. In this formula, A570 is the absorbance of the treated samples at 570 nm; A600 is the absorbance of the treated samples at 600 nm; A^o570 is the absorbance of the […] samples at 570 nm; and A^o600 is the absorbance of the untreated samples at 600 nm. The two constants, 117216 and 80586, are the extinction coefficients of Alamar Blue™ at 570 and 600 nm respectively. Each concentration was repeated in triplicate to minimize the error.
(§3) We first tested the cytotoxic effect of various stilbene derivatives for their in vitro efficacy of suppressing tumor cell proliferation. Cells were first plated in 96-well plates at 50% confluence and treated with 0, 0.01, 0.03, 0.1, 0.3, 1.0, 3.0, 10 μM concentrations of stilbene derivatives for 48 hours in triplicate. Alamar Blue™ reagent was added into each well at 1/10 volume and incubated for 2 hours before quantification of the absorbance at 570 and 600 nm.

Tubulin (>99% pure) = assay: tubulin polymerization assay (OD 340 nm); type: biochemical; conditions: OD340 nm; nocodazole and paclitaxel 10 μM
Protocol: FIG. 3a-d. Stilbenes inhibit tubulin polymerization. (a) Effect of stilbene 4a. Pure tubulin was incubated with various concentrations of stilbene 4a, 10 μM nocodazole, and 10 μM paclitaxel in the polymerization buffer. The OD at 340 nm was monitored every minute by SpectraMAX 250 and plotted against time. (b) Effect of stilbene 4c. (c) Comparison of same concentrations of stilbenes 4a, 4a trans, 4c and 4c trans with control. […] Tubulin was incubated with [^3H]-colchicine and various concentrations of different stilbenes for 20 min. Tubulin was then separated from the unbound [^3H]-colchicine by Microcon-30 and washed three times with PBS. The radioactivity of the tubulin was counted. […] All experiments were done in triplicates.
The tubulin polymerization assay kit was purchased from Cytoskeleton (Denver, Colo.). Tubulin (>99% pure) was mixed with general tubulin buffer (GTB, 80 mM PIPES pH 6.9, 2 mM MgCl2, 0.5 mM EGTA, and 1 mM GTP) in a 96-well plate at 37° C. Absorbance at 340 nm was measured every 1 min for 60 min by SpectraMAX 250 (Molecular Devices, Sunnyville, Calif.). Analysis of the results was performed by SoftMAX Pro version 1.2.0 from the same company.

[2] = system: SKOV3 ovarian cancer cells; assay: Alamar Blue cell growth inhibition, SKOV3; type: cell-based
Protocol: Cells were incubated with various concentrations of the compounds for 48 hours. Cell growth was measured by Alamar Blue™ staining and the percentage of cell growth inhibition was calculated and compared with the control cells that were treated with 0.1% DMSO, the vehicle for the stilbene compounds.
as §2

[3] = system: UCI101 ovarian cancer cells (xenograft); assay: UCI101 xenograft in nude mice; type: in vivo
Protocol: as §1
We next tested whether 5b could be converted into stilbene 4a in circulation. […] Blood was collected at 20, 60 and 240 min after injection for spot check of stilbene 4a level in serum. […] The in vivo efficacy of 5b and 5c was compared to stilbene 4a in a pilot study using 5 mice in each group.

[4] = system: HL60 leukemic cells (xenograft); assay: HL60 xenograft model in SCID mice; type: in vivo; conditions: 5 mg/kg/day for 4 days
Protocol: FIG. 20. Effect of stilbene 4a in vivo. (a) Induction of cell death in vivo by stilbene 4a. Tumor was harvested at 24 hours after treatment for TUNEL assay. (b) Histological sections of tumor. Tumor harvested at 24 hours after injection of stilbene 4a was analyzed by H & E staining. The area with lighter color is the necrotic region. (c) Tumor growth suppression. SCID mice were injected subcutaneously with 5×10^6 HL60 cells at each flank. Once the diameter of tumor reached 5 mm in diameter in majority of mice, mice were treated with 5 daily injection of stilbene 4a. Tumor volume was calculated by the long and short axis of tumor and plotted against days. Each group contains 5 mice.
HL60 leukemic cells were injected subcutaneously into ICR-scid mice (Taconic Inc.) on flank. After tumor becomes visible after 12 days, Mice will be treated with stilbene 4a by intravenous injection after dissolved in 10% DMSO in normal saline. For acute effect study, mice were sacrificed 24 hours after injection and tumor and bone marrow were harvested for histological staining and flow cytometry analysis. For long term effect study, stilbenes were injected intravenously from tail veins at 2 or 10 mg/kg for 5 consecutive days. Negative control mice were treated with 10% DMSO in normal saline and positive control mice were treated with Ara-C at 5 mg/kg. Tumor volume was measured twice a week for 4 weeks by the long and short axes of tumor. Volume was calculated by the formula ab^2/2, in which “a” represents the long axis and “b” the short axis of tumor. Mice were euthanized if the calculated tumor reached 10% of the body weight.

[5] = system: SNU423 hepatocellular carcinoma cells; assay: Alamar Blue cell growth inhibition, SNU423; type: cell-based
Protocol: Cell growth was measured by Alamar Blue™ staining and the OD absorbance at 570 and 600 nm was determined by a microplate reader. The percentage of cell growth inhibition was calculated and compared with the control cells that were treated with 0.1% DMSO, the vehicle for the stilbene compounds.
as §2, §3

## COc1cc(/C=C\c2ccc(OC)c(N)c2)cc(OCC(=O)O)c1 [10f, (Z)-{3-[2-(3-Amino-4-methoxy-phenyl)-vinyl]-5-methoxy-phenoxy}-acetic acid]
[1]
  relative potency / activity: not active

## COc1cc(/C=C\c2ccc(OC)c(CN3C(=O)c4ccccc4C3=O)c2)cc(OC)c1 [3e, (Z)-2-{5-[2-(3,5-Dimethoxy-phenyl)-vinyl]-2-methoxy-benzyl}-isoindole-1,3-dione]
[1]; UCI101
  effective concentration, cell growth suppression: > 3 µM

## COC(=O)Nc1nc2ccc(C(=O)c3cccs3)cc2[nH]1 [nocodazole, reference compound]
Tubulin (>99% pure)
  effect on tubulin polymerization: suppressed

## COc1cc(/C=C\c2ccc(OC)c(N)c2)cc(OC(C)C)c1.Cl
other
  melting point: 120 to 122 °C

## COc1cc2c(c(OC)c1OC)-c1ccc(OC)c(=O)cc1[C@@H](NC(C)=O)CC2 [colchicine, reference compound]
[2]; SKOV3, 48 hours
  effective / active concentration: 0.1 µM

## COc1cc(/C=C\c2ccc(OC)c(NC(=O)OCCOCCOCCO)c2)cc(OC)c1 [5c, (Z)-{5-[2-(3,5-Dimethoxy-phenyl)-vinyl]-2-methoxy-phenyl}-carbamic acid-2-[2-(2-hydroxy-ethoxy)-ethoxy]-ethyl ester]
[1]
  relative potency / activity: showed no activity
[3]; 7 doses every 2-3 days
  tumor growth versus control mice: tumor growth rate the same as that of control mice
[3]; mouse, in vivo
  mouse weight: did not show any significant change

## COc1ccc(/C=C\c2ccc3[nH]ccc3c2)cc1N.O=C(O)C(=O)O [14a, (Z)-5-[2-(1H-Indol-5-yl)-vinyl]-2-methoxy-phenylamine, oxalate salt]
[1]
  relative potency / activity: not active
other
  melting point: 112 to 115 °C

## C=CCOc1cc(/C=C\c2ccc(OC)c(N)c2)cc(OC)c1.Cl [10e, (Z)-5-[2-(3-Allyloxy-5-methoxy-phenyl)-vinyl]-2-methoxy-phenylamine, hydrochloride]
[1]
  relative potency / activity: active but less effective than stilbene 4a
other
  melting point: 122 to 125 °C

## Nc1ccn([C@@H]2O[C@H](CO)[C@@H](O)[C@@H]2O)c(=O)n1 [Ara-C, reference compound]
[4]
  adverse effect: Ara-C-induced conjunctivitis

## C=CCOc1cc(/C=C/c2ccc(OC)c(N)c2)cc(OC)c1.Cl
other
  melting point: 137 to 140 °C

## COc1ccc(/C=C\c2ccc3c(ccn3C)c2)cc1N [14b, (Z)-2-Methoxy-5-[2-(1-methyl-1H-indol-5-yl)-vinyl]-phenylamine]
[1]
  relative potency / activity: less potent than stilbene 4a by one log

## COc1cc(/C=C\c2ccc3ccn(C)c3c2)cc(OC)c1 [13b, (Z)-6-[2-(3,5-Dimethoxy-phenyl)-vinyl]-1-methyl-1H-indole]
[1]
  relative potency / activity: less potent than stilbene 4a by one log

## COc1cc(/C=C\c2ccc(OC)c(NC(=O)NCCN3CCOCC3)c2)cc(OC)c1 [5a, (Z)1-{5-[2-(3,5-Dimethoxy-phenyl)-vinyl]-2-methoxy-phenyl}-3-(2-morpholin-4-yl-ethyl)-urea, hydrochloride]
[1]
  relative potency / activity: showed no activity

## COc1cc(/C=C/c2ccc(OC)c(N)c2)cc(OC(C)C)c1.Cl
other
  melting point: 134 to 136 °C

## COc1cc(/C=C\c2ccc(OC)c(C(=O)O)c2)cc(OC)c1 [4d, (Z)-5-[2-(3,5-Dimethoxy-phenyl)-vinyl]-2-methoxybenzoic acid.]
[5]; SNU423, 48 hours
  effective concentration, blocking cell proliferation: > 10 µM
[2]; SKOV3
  activity: not active

## COc1cccc2c1C(=O)c1c(O)c3c(c(O)c1C2=O)C[C@@](O)(C(=O)CO)C[C@@H]3O[C@H]1C[C@H](N)[C@H](O)[C@H](C)O1 [doxorubicin, reference compound]
[5]; SNU423
  relative potency: potency similar to that of 10a

## CCOc1cc(/C=C\c2ccc(OC)c(N)c2)cc(OC)c1.Cl [10b, (Z)-5-[2-(3-Ethoxy-5-methoxy-phenyl)-vinyl]-2-methoxy-phenylamine, hydrochloride]
[1]
  relative potency / activity: active but less effective than stilbene 4a
other
  melting point: 127 to 131 °C

## COc1cc(/C=C\c2ccc(OC)c(N)c2)cc(OCCO)c1 (as salt: hydrochloride) [10a, (Z)-2-{3-[2-(3-Amino-4-methoxy-phenyl)-vinyl]-5-methoxy-phenoxy}-ethanol, hydrochloride]
other
  melting point: 157 to 159 °C

## CCOc1cc(/C=C/c2ccc(OC)c(N)c2)cc(OC)c1.Cl
other
  melting point: 147 to 149 °C

— US7781580B2, “Stilbene derivatives as new cancer therapeutic agents” (Virginia Commonwealth University, priority 2007, dated 2010)
